Where a name gives a salt, the structure may show the parent alone.
How the values were obtained:
[1] = tested on: 3T3-L1 cells; assay: Glucose uptake assay using 3T3-L1 cells; assay type: cell-based; details: 14C deoxyglucose uptake in differentiated 3T3-L1 adipocytes; 1 μM for 72 hours; relative to reference compound BLX-1002
Method: Glucose Uptake Assay Using 3T3-L1 Cells
3T3-L1 cells were differentiated by the addition of differentiation cocktail (72 μg/ml insulin, 0.5 mM IBMX, 400 ng/ml Dexamethasone) for 4 days and were later fed with media without the differentation cocktail for 7-8 days. After differentiation the cells were incubated with the either the reference compound BLX-1002 or with the compounds listed in the table 1 at 1 μM concentrations for 72 hours, and the glucose uptake assay was carried out for 10 minutes by the addition of KRP buffer supplemented with 2.5 μCi/ml ^14C deoxy glucose. Stimulation Index is defined as the amount of ^14C Deoxyglucose uptake induced by 1 μM of BLX-1002 incubated for 72 hours in an assay condition as per the protocol described above with differentiated 3T3-L1 adipocytes. The values for compounds mentioned in table-1 are with reference to the stimulation index of reference compound BLX-1002.

[2] = tested on: streptozotocin induced diabetic mice; assay: Antidiabetic activity in streptozotocin induced diabetic mice; assay type: in vivo; details: 50 mg/kg body weight, oral route, 7 days, female Swiss albino mice, fasted 6 hours
Method: Antidiabetic Activity in Streptozotocin Induced Diabetic Mice
Female Swiss albino mice, at the age of 10 weeks were used in the study. Diabetes was induced in the animals by injecting streptozotocin by i.p. route at a dose of 200 mg/kg body weight. 48 hours after streptozotocin administration, the animals were kept fasting for 6 hours. Subsequently blood was collected, plasma separated and the glucose was estimated. Animals showing greater than 200 mg/dl glucose levels were considered as diabetic and these animals were randomly distributed into various groups. The example 2 listed in the table 2 was administered at a dose of 50-mg/kg body weight by oral route for 7 days. Later the animals were fasted for 6 hours, the blood was collected and the plasma was separated. Biochemical estimations like glucose, cholesterol and triglycerides were carried out using the plasma. The effect of the compounds mentioned in the table was expressed in terms of percentage reduction in biochemical values as compared to the control group.

## COC(=O)C(N)Cc1ccc(Oc2ccc(Nc3ccccn3)cc2)cc1 (stereo not drawn) [Example 1, Methyl-2-amino-3-{4-[4-(pyridin-2-ylamino)phenoxy]phenyl}propionate dihydrochloride]
[1]
  Stimulation Index: 1.10

## COC(=O)[C@@H](N)Cc1ccc(Oc2ccc(Nc3ccccn3)cc2)cc1 [Example 2, Methyl (2S)-2-amino-3-{4-[4-(pyridin-2-ylamino)phenoxy]phenyl}propanoate dihydrochloride]
[2]; plasma glucose vs control group
  % Reduction Glucose: 52.4%
[2]; plasma triglyceride vs control group
  % Reduction Triglyceride: 49.6%

Reference: patent US20090082408A1, “NOVEL HETEROCYCLIC DERIVATIVES” (priority 2005, published 2009)
